Experimental data reported in PubChem BioAssay (NCI).
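Five concentrations, 48 hours, 96-well plates. TGI denotes the concentration required for complete inhibition of growth.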

Columns and labels:
Experiment in all cases: NCI anticancer screen, dose series, 48 h
SK-OV-3 ovarian = test system: SK-OV-3 ovarian
HL-60(TB) leukemia = test system: HL-60(TB) leukemia
MDA-N = test system: MDA-N
NCI-H23 lung = test system: NCI-H23 lung
MDA-MB-435 = test system: MDA-MB-435
TK-10 renal = test system: TK-10 renal
RPMI-8226 leukemia = test system: RPMI-8226 leukemia
SF-295 CNS = test system: SF-295 CNS
CCRF-CEM leukemia = test system: CCRF-CEM leukemia
SK-MEL-5 melanoma = test system: SK-MEL-5 melanoma
SN12C renal = test system: SN12C renal
SF-268 CNS = test system: SF-268 CNS
MDA-MB-231 breast = test system: MDA-MB-231 breast
K-562 leukemia = test system: K-562 leukemia
NCI-H522 lung = test system: NCI-H522 lung
T-47D breast = test system: T-47D breast
UO-31 renal = test system: UO-31 renal
HCC-2998 colon = test system: HCC-2998 colon
SW-620 colon = test system: SW-620 colon
HOP-92 NSCLC = test system: HOP-92 NSCLC
KM12 colon = test system: KM12 colon
ACHN renal = test system: ACHN renal
RXF 393 renal = test system: RXF 393 renal
HS 578T breast = test system: HS 578T breast
OVCAR-4 ovarian = test system: OVCAR-4 ovarian
CAKI-1 renal = test system: CAKI-1 renal
HOP-62 NSCLC = test system: HOP-62 NSCLC
A549 NSCLC = test system: A549 NSCLC
UACC-62 melanoma = test system: UACC-62 melanoma
HCT-116 colon = test system: HCT-116 colon
SK-MEL-28 melanoma = test system: SK-MEL-28 melanoma
SR leukemia = test system: SR leukemia
786-0 renal = test system: 786-0 renal
MALME-3M melanoma = test system: MALME-3M melanoma
UACC-257 melanoma = test system: UACC-257 melanoma
COLO 205 colon = test system: COLO 205 colon
SF-539 CNS = test system: SF-539 CNS
HCT-15 colon = test system: HCT-15 colon
OVCAR-8 ovarian = test system: OVCAR-8 ovarian
BT-549 breast = test system: BT-549 breast
IGROV1 ovarian = test system: IGROV1 ovarian
NCI/ADR-RES ovarian = test system: NCI/ADR-RES ovarian
SNB-75 CNS = test system: SNB-75 CNS
MCF7 breast = test system: MCF7 breast
DU-145 prostate = test system: DU-145 prostate
NCI-H226 lung = test system: NCI-H226 lung
SNB-19 CNS = test system: SNB-19 CNS
NCI-H460 lung = test system: NCI-H460 lung
M14 melanoma = test system: M14 melanoma
HT29 colon = test system: HT29 colon
LOX IMVI melanoma = test system: LOX IMVI melanoma
EKVX NSCLC = test system: EKVX NSCLC
PC-3 prostate = test system: PC-3 prostate
A498 renal = test system: A498 renal
SK-MEL-2 melanoma = test system: SK-MEL-2 melanoma
U251 CNS = test system: U251 CNS
OVCAR-5 ovarian = test system: OVCAR-5 ovarian
MOLT-4 leukemia = test system: MOLT-4 leukemia
OVCAR-3 ovarian = test system: OVCAR-3 ovarian

N#Cc1nc(/C=C/c2nc(C#N)c(N)o2)oc1N
TGI (SK-OV-3 ovarian): > 10 µM | TGI (HL-60(TB) leukemia): > 10 µM | TGI (MDA-N): > 10 µM | TGI (NCI-H23 lung): > 10 µM | TGI (MDA-MB-435): > 10 µM | TGI (TK-10 renal): > 10 µM | TGI (RPMI-8226 leukemia): > 10 µM | TGI (SF-295 CNS): > 10 µM | TGI (CCRF-CEM leukemia): > 10 µM | TGI (SK-MEL-5 melanoma): > 10 µM | TGI (SN12C renal): > 10 µM | TGI (SF-268 CNS): > 10 µM | TGI (MDA-MB-231 breast): > 10 µM | TGI (K-562 leukemia): > 10 µM | TGI (NCI-H522 lung): > 10 µM | TGI (T-47D breast): > 10 µM | TGI (UO-31 renal): > 10 µM | TGI (HCC-2998 colon): > 10 µM | TGI (SW-620 colon): > 10 µM | TGI (HOP-92 NSCLC): > 10 µM | TGI (KM12 colon): > 10 µM | TGI (ACHN renal): > 10 µM | TGI (RXF 393 renal): > 10 µM | TGI (HS 578T breast): > 10 µM | TGI (OVCAR-4 ovarian): > 10 µM | TGI (CAKI-1 renal): > 10 µM | TGI (HOP-62 NSCLC): > 10 µM | TGI (A549 NSCLC): > 10 µM | TGI (UACC-62 melanoma): > 10 µM | TGI (HCT-116 colon): > 10 µM | TGI (SK-MEL-28 melanoma): > 10 µM | TGI (SR leukemia): > 10 µM | TGI (786-0 renal): > 10 µM | TGI (MALME-3M melanoma): > 10 µM | TGI (UACC-257 melanoma): > 10 µM | TGI (COLO 205 colon): > 10 µM | TGI (SF-539 CNS): > 10 µM | TGI (HCT-15 colon): > 10 µM | TGI (OVCAR-8 ovarian): > 10 µM | TGI (BT-549 breast): > 10 µM | TGI (IGROV1 ovarian): > 10 µM | TGI (NCI/ADR-RES ovarian): > 10 µM | TGI (SNB-75 CNS): > 10 µM | TGI (MCF7 breast): > 10 µM | TGI (DU-145 prostate): > 10 µM | TGI (NCI-H226 lung): > 10 µM | TGI (SNB-19 CNS): > 10 µM | TGI (NCI-H460 lung): > 10 µM | TGI (M14 melanoma): > 10 µM | TGI (HT29 colon): > 10 µM | TGI (LOX IMVI melanoma): > 10 µM | TGI (EKVX NSCLC): > 10 µM | TGI (PC-3 prostate): > 10 µM

C[C@@]1(O)C2C3CC4C5C3C1[C@](O)(C42)[C@H]5Br (some centres not stated)
TGI (HL-60(TB) leukemia): > 100 µM | TGI (MDA-N): > 100 µM | TGI (NCI-H23 lung): > 100 µM | TGI (MDA-MB-435): > 100 µM | TGI (TK-10 renal): > 100 µM | TGI (A498 renal): > 100 µM | TGI (SF-295 CNS): > 100 µM | TGI (SK-MEL-2 melanoma): > 100 µM | TGI (CCRF-CEM leukemia): > 100 µM | TGI (SK-MEL-5 melanoma): > 100 µM | TGI (SN12C renal): > 100 µM | TGI (SF-268 CNS): > 100 µM | TGI (MDA-MB-231 breast): > 100 µM | TGI (K-562 leukemia): > 100 µM | TGI (NCI-H522 lung): > 100 µM | TGI (T-47D breast): > 100 µM | TGI (UO-31 renal): > 100 µM | TGI (HCC-2998 colon): > 100 µM | TGI (SW-620 colon): > 100 µM | TGI (HOP-92 NSCLC): > 100 µM | TGI (KM12 colon): > 100 µM | TGI (ACHN renal): > 100 µM | TGI (U251 CNS): > 100 µM | TGI (RXF 393 renal): > 100 µM | TGI (HS 578T breast): > 100 µM | TGI (OVCAR-4 ovarian): > 100 µM | TGI (OVCAR-5 ovarian): > 100 µM | TGI (CAKI-1 renal): > 100 µM | TGI (HOP-62 NSCLC): > 100 µM | TGI (A549 NSCLC): > 100 µM | TGI (UACC-62 melanoma): > 100 µM | TGI (HCT-116 colon): > 100 µM | TGI (SK-MEL-28 melanoma): > 100 µM | TGI (SR leukemia): > 100 µM | TGI (786-0 renal): > 100 µM | TGI (UACC-257 melanoma): > 100 µM | TGI (COLO 205 colon): > 100 µM | TGI (SF-539 CNS): > 100 µM | TGI (HCT-15 colon): > 100 µM | TGI (OVCAR-8 ovarian): > 100 µM | TGI (BT-549 breast): > 100 µM | TGI (MOLT-4 leukemia): > 100 µM | TGI (IGROV1 ovarian): > 100 µM | TGI (NCI/ADR-RES ovarian): > 100 µM | TGI (MCF7 breast): > 100 µM | TGI (DU-145 prostate): > 100 µM | TGI (SNB-19 CNS): > 100 µM | TGI (NCI-H460 lung): > 100 µM | TGI (M14 melanoma): > 100 µM | TGI (HT29 colon): > 100 µM | TGI (OVCAR-3 ovarian): > 100 µM | TGI (LOX IMVI melanoma): > 100 µM | TGI (EKVX NSCLC): > 100 µM | TGI (PC-3 prostate): > 100 µM
